From patent US6376488B1, “Benzoxazine α-1 adrenergic compounds” (Abbott Laboratories, priority 2000, dated 2002) come the findings set out here.

Molecules are shown by their SMILES.

One data set has as its target T1, α1a (rat) adrenoreceptor (Rattus norvegicus, UniProt P43140).
T1 sequence (P43140 1-466): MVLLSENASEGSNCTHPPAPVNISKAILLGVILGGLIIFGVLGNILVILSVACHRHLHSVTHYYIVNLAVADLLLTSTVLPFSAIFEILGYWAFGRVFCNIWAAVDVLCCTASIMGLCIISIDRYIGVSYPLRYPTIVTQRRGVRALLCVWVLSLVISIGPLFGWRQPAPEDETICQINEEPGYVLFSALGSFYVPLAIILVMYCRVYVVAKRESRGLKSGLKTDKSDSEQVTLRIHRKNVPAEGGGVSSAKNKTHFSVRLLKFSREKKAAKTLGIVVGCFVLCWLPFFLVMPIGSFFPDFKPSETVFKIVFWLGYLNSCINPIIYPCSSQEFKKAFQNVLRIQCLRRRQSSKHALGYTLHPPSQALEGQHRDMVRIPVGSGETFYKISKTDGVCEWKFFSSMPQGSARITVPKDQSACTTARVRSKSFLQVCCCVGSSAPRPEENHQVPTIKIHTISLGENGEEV
Briefly: [3H]-prazosin radioligand binding, cloned α1a (rat) adrenoreceptor in LTK cells. As to conditions: cloned receptor in LTK cell membranes, [3H]prazosin 0.2 nM. The text has this:
(§1) The cDNA clones encoding the α1, adrenoreceptors were obtained from TULCO (Triangle Universities Licensing Consortium, Research Triangle Park, N.C.) and inserted into the eukaryotic expression vector SnaB30. In this vector, expression of the adrenoreceptor gene is under the transcriptional control of an SV40 early promoter. Positive drug selection is provided by a neomycin-resistance gene. Mouse fibroblast cells (LTK) were transfected with the α1 expression plasmids and grown in Dulbecco's modified Eagle's medium (DMEM) containing 10% fetal calf serum and 30 μM G418. […] Stable single cell clones derived from the parental lines were screened in adrenoreceptor binding assays to identify clones having high adrenoreceptor density. Roller bottle cultures of the cloned lines were used to provide cell membranes for subsequent adrenoreceptor binding characterization studies. A cell line containing the SnaB30 vector expressing the human erythropoietin gene served as a negative control.
(§2) For adrenoreceptor binding assays, large scale membrane preparations were utilized in which 6 million cells were seeded into small (450 cm^2) Coming tissue culture roller bottles. DMEM (200 mL) containing 10% fetal calf serum and 300 μM G418 were added to each roller bottle. A 95% air/5% CO2 gas mixture (sterile) was injected into each roller bottle prior to sealing, and the bottles were then incubated at 37° C. on a roller rack for 5 days. Cells were refed with fresh medium after 3 days in culture.
(§3) On the fifth day of culture, growth medium was removed from cells grown in roller bottles, and the cells were washed twice with PBS (Sigma, 120 mM NaCl, 2.7 mM KCl, 10 mM Na2HPO4-NaH2PO4, pH=7.4). Cells were detached from the roller bottles by incubating for 15 minutes at 37° C. in a Tris-EDTA solution (10 mM Tris, 100 mM NaCl, 1 mM EDTA, pH=7.4). The cell suspension from each roller bottle was decanted into tared centrifuge tubes and kept on ice. An aliquot of each cell suspension was generally taken for cell counting. Cells were centrifuged at 3000×G for 5 minutes at 2-4° C., washed with PBS and recentrifuged. The supernatant was decanted, and the pellet was weighed to determine the wet weight of cells. Cells were washed a final time in 40 vol 5 mM Tris-HCl, 5 mM EDTA, pH=7.7 and centrifuged at 40,000×G for 10 minutes (“vol” indicates volume/weight, e.g., a “vol” of 40 would indicate that the one gram of cells were washed with 40 mls of buffer). Cells were homogenized in of 50 mM Tris-HCl, 5 mM EDTA (pH=7.4) (10 mL) and diluted to 40 mL/tube. Homogenates were centrifuged at 40,000×G for 10 minutes. The supernatant was decanted and the pellets rehomogenized in 50 mM Tris-HCl (pH=7.4) and centrifuged as before.
(§4) Following equilibration, bound radioligand was separated from free on GF/B filters (presoaked in 0.5% polyethyleneimine) using ither a Brandel or Packard cell harvester. Radioactivity was determined by standard liquid scintillation techniques.

For data set [1], the target named is T2, α1b (Hamster) adrenoreceptor (Mesocricetus auratus, UniProt P18841).
T2 sequence (P18841 1-515): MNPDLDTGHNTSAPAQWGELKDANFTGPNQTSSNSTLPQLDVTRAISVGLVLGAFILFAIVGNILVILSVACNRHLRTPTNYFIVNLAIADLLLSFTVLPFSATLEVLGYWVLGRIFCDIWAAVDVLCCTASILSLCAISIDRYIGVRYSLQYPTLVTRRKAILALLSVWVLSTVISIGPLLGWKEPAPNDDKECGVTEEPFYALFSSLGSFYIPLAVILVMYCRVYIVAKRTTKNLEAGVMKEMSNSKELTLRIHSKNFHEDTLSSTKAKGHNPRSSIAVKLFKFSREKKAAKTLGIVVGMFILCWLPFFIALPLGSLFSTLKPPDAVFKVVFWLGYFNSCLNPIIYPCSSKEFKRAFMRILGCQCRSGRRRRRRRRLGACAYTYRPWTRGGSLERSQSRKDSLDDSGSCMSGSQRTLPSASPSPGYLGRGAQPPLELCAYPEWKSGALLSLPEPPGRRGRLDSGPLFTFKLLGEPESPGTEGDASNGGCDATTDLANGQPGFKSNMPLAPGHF
Briefly: [3H]-prazosin radioligand binding, cloned α1b (hamster) adrenoreceptor in LTK cells. As to conditions: cloned receptor in LTK cell membranes, [3H]prazosin 0.2 nM.
Description: as §1, §2, §3, §4

As for `COc1cccc2c1N1CCN(CCn3c(=O)[nH]c4c(sc5ncc(Cl)nc54)c3=O)CC1CO2.Cl.Cl` (single isomer, unassigned; (+)) [Example 8, (+) 3-[2-(10-methoxy-1,2,4a,5-tetrahydropyrazino[2,1-c][1,4]benzoxazin-3(4H)-yl)ethyl]-8-chloropyrazino[2′,3′:4,5]thieno[3,2-d]pyrimidine-2,4(1H,3H)-dione dihydrochloride], the melting point lay within 280 to 283 °C. In addition, the Ki on α1a (rat) adrenoreceptor is 1.78 nM. The compound further gave a Ki in data set [1] of 58.1 nM.

The compound `COc1cccc2c1N1CCN(CCCn3c(=O)[nH]c4c(sc5cccnc54)c3=O)CC1CO2.Cl.Cl.Cl` (single isomer, unassigned; (+)) [Example 17, (+) 3-[3-(10-methoxy-1,2,4a,5-tetrahydropyrazino[2,1-c][1,4]benzoxazin-3(4H)-yl)propyl]pyrido[2′,3′:4,5]thieno[3,2-d]pyrimidine-2,4(1H,3H)-dione trihydrochloride] had a melting point of 219 to 224 °C. The Ki at α1a (rat) adrenoreceptor worked out at 4.44 nM. The same compound yielded an inhibition constant Ki in data set [1] of 40.4 nM.

As for `Cl.Cl.O=c1[nH]c2c(sc3ncccc32)c(=O)n1CCCCN1CCN2c3ccccc3OCC2C1` (single isomer, unassigned; (-)) [Example 6, (−) 3-[4-(1,2,4a,5-tetrahydropyrazino[2,1-c][1,4]benzoxazin-3(4H)-yl)butyl]pyrido[3′, 2′:4,5]thieno[3,2-d]pyrimidine-2,4(1H,3H)-dione dihydrochloride], the melting point lay within 290 to 293 °C. This compound also yielded an inhibitory constant (Ki) on α1a (rat) adrenoreceptor of 9.83 nM. For the same compound, affinity in data set [1] was put at a Ki of 27.3 nM.

For `Cl.Cl.O=c1[nH]c2c(sc3cccnc32)c(=O)n1CCCCN1CCN2c3ccccc3OCC2C1` (single isomer, unassigned; (+)) [Example 3, (+) 3-[4-(1,2,4a,5-tetrahydropyrazino[2,1-c][1,4]benzoxazin-3(4H)-yl)butyl]pyrido[2′, 3′:4,5]thieno[3,2-d]pyrimidine-2,4(1H,3H)-dione dihydrochloride], the melting point was 278 to 280 °C. This compound also yielded a Ki at α1a (rat) adrenoreceptor of 2.85 nM. The affinity in data set [1], expressed as Ki, was 32.4 nM.

Broadly, the melting point is the temperature, or range, at which the solid turns liquid. As a reminder, the Ki is a dissociation constant, usually derived from enzyme kinetics or from competition with a known ligand.
